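Dose response: 5 concentrations. Exposure: 48 h. Format: 96-well plates. Endpoint: linear interpolation; highest concentration if not reached. Abbreviation: GI50, concentration required for 50% inhibition of growth.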 Active and inactive are the calls of the source. Rule as the data show it: active = GI50 up to about 1.1 µM and inactive = higher.
Experiments:
Assay in all cases: growth of human tumour cells (NCI), 48 h
786-0 = tested on: 786-0
A498 = tested on: A498
A549 = tested on: A549
ACHN = tested on: ACHN
BT-549 = tested on: BT-549
CAKI-1 = tested on: CAKI-1
COLO 205 = tested on: COLO 205
DU-145 = tested on: DU-145
EKVX = tested on: EKVX
HCT-116 = tested on: HCT-116
HCT-15 = tested on: HCT-15
HOP-62 = tested on: HOP-62
HOP-92 = tested on: HOP-92
HT-29 = tested on: HT-29
Hs-578T = tested on: Hs-578T
IGROV-1 = tested on: IGROV-1
K562 = tested on: K562
KM12 = tested on: KM12
LOX IMVI = tested on: LOX IMVI
M14 = tested on: M14
MCF7 = tested on: MCF7
MDA-MB-231 = tested on: MDA-MB-231
MDA-MB-435 = tested on: MDA-MB-435
MDA-N = tested on: MDA-N
MOLT-4 = tested on: MOLT-4
Malme-3M = tested on: Malme-3M
NCI-H226 = tested on: NCI-H226
NCI-H23 = tested on: NCI-H23
NCI-H460 = tested on: NCI-H460
NCI-H522 = tested on: NCI-H522
NCI/ADR-RES = tested on: NCI/ADR-RES
OVCAR-3 = tested on: OVCAR-3
OVCAR-4 = tested on: OVCAR-4
OVCAR-5 = tested on: OVCAR-5
OVCAR-8 = tested on: OVCAR-8
PC-3 = tested on: PC-3
RPMI-8226 = tested on: RPMI-8226
RXF 393 = tested on: RXF 393
SF-268 = tested on: SF-268
SF-295 = tested on: SF-295
SF-539 = tested on: SF-539
SK-MEL-28 = tested on: SK-MEL-28
SK-MEL-2 = tested on: SK-MEL-2
SK-MEL-5 = tested on: SK-MEL-5
SK-OV-3 = tested on: SK-OV-3
SN12C = tested on: SN12C
SNB-19 = tested on: SNB-19
SNB-75 = tested on: SNB-75
SW-620 = tested on: SW-620
T47D = tested on: T47D
TK-10 = tested on: TK-10
U-251 = tested on: U-251
UACC-257 = tested on: UACC-257
UACC-62 = tested on: UACC-62
UO-31 = tested on: UO-31
CCRF-CEM = tested on: CCRF-CEM
HCC 2998 = tested on: HCC 2998
HL-60 = tested on: HL-60
SR = tested on: SR

CC(C)NCCC(O)c1cc2ccccc2o1 (stereo not drawn)
GI50 (786-0): > 100 µM (inactive) | GI50 (A498): > 100 µM (inactive) | GI50 (A549): > 100 µM (inactive) | GI50 (ACHN): > 100 µM (inactive) | GI50 (BT-549): > 100 µM (inactive) | GI50 (CAKI-1): > 100 µM (inactive) | GI50 (COLO 205): > 100 µM (inactive) | GI50 (DU-145): > 100 µM (inactive) | GI50 (EKVX): > 100 µM (inactive) | GI50 (HCT-116): > 100 µM (inactive) | GI50 (HCT-15): > 100 µM | GI50 (HOP-62): > 100 µM (inactive) | GI50 (HOP-92): > 100 µM (inactive) | GI50 (HT-29): > 100 µM (inactive) | GI50 (Hs-578T): > 100 µM (inactive) | GI50 (IGROV-1): > 100 µM (inactive) | GI50 (K562): 1.06 µM (active) | GI50 (KM12): > 100 µM (inactive) | GI50 (LOX IMVI): > 100 µM (inactive) | GI50 (M14): > 100 µM (inactive) | GI50 (MCF7): > 100 µM (inactive) | GI50 (MDA-MB-231): > 100 µM (inactive) | GI50 (MDA-MB-435): > 100 µM (inactive) | GI50 (MDA-N): > 100 µM (inactive) | GI50 (MOLT-4): 20.4 µM (inactive) | GI50 (Malme-3M): > 100 µM (inactive) | GI50 (NCI-H226): > 100 µM (inactive) | GI50 (NCI-H23): > 100 µM (inactive) | GI50 (NCI-H460): > 100 µM (inactive) | GI50 (NCI-H522): > 100 µM (inactive) | GI50 (NCI/ADR-RES): > 100 µM (inactive) | GI50 (OVCAR-3): > 100 µM (inactive) | GI50 (OVCAR-4): > 100 µM (inactive) | GI50 (OVCAR-5): > 100 µM (inactive) | GI50 (OVCAR-8): > 100 µM (inactive) | GI50 (PC-3): > 100 µM (inactive) | GI50 (RPMI-8226): > 100 µM (inactive) | GI50 (RXF 393): > 100 µM (inactive) | GI50 (SF-268): > 100 µM (inactive) | GI50 (SF-295): > 100 µM (inactive) | GI50 (SF-539): > 100 µM (inactive) | GI50 (SK-MEL-28): > 100 µM (inactive) | GI50 (SK-MEL-2): > 100 µM (inactive) | GI50 (SK-MEL-5): > 100 µM (inactive) | GI50 (SK-OV-3): > 100 µM (inactive) | GI50 (SN12C): 30.1 µM (inactive) | GI50 (SNB-19): > 100 µM (inactive) | GI50 (SNB-75): 7.67 µM (inactive) | GI50 (SW-620): > 100 µM (inactive) | GI50 (T47D): > 100 µM (inactive) | GI50 (TK-10): > 100 µM (inactive) | GI50 (U-251): > 100 µM (inactive) | GI50 (UACC-257): > 100 µM (inactive) | GI50 (UACC-62): > 100 µM (inactive) | GI50 (UO-31): > 100 µM (inactive)

CCOC(=O)C(C(=O)c1ccccc1C(=O)OC)=P(c1ccccc1)(c1ccccc1)c1ccccc1
GI50 (786-0): > 10 µM (inactive) | GI50 (A498): > 10 µM (inactive) | GI50 (A549): > 10 µM (inactive) | GI50 (ACHN): > 10 µM (inactive) | GI50 (BT-549): > 10 µM (inactive) | GI50 (CAKI-1): > 10 µM (inactive) | GI50 (CCRF-CEM): > 10 µM (inactive) | GI50 (COLO 205): > 10 µM (inactive) | GI50 (DU-145): > 10 µM (inactive) | GI50 (EKVX): > 10 µM (inactive) | GI50 (HCC 2998): > 10 µM (inactive) | GI50 (HCT-116): > 10 µM (inactive) | GI50 (HCT-15): > 10 µM | GI50 (HL-60): > 10 µM (inactive) | GI50 (HOP-62): > 10 µM (inactive) | GI50 (HOP-92): > 10 µM (inactive) | GI50 (HT-29): > 10 µM (inactive) | GI50 (Hs-578T): > 10 µM (inactive) | GI50 (IGROV-1): > 10 µM (inactive) | GI50 (K562): > 10 µM (inactive) | GI50 (KM12): > 10 µM (inactive) | GI50 (LOX IMVI): > 10 µM (inactive) | GI50 (M14): > 10 µM (inactive) | GI50 (MCF7): > 10 µM (inactive) | GI50 (MDA-MB-231): > 10 µM (inactive) | GI50 (MDA-MB-435): > 10 µM (inactive) | GI50 (MDA-N): > 10 µM (inactive) | GI50 (MOLT-4): > 10 µM (inactive) | GI50 (Malme-3M): > 10 µM (inactive) | GI50 (NCI-H226): > 10 µM (inactive) | GI50 (NCI-H23): > 10 µM (inactive) | GI50 (NCI-H460): > 10 µM (inactive) | GI50 (NCI-H522): > 10 µM (inactive) | GI50 (NCI/ADR-RES): > 10 µM (inactive) | GI50 (OVCAR-3): > 10 µM (inactive) | GI50 (OVCAR-4): > 10 µM (inactive) | GI50 (OVCAR-5): > 10 µM (inactive) | GI50 (OVCAR-8): > 10 µM (inactive) | GI50 (PC-3): > 10 µM (inactive) | GI50 (RPMI-8226): > 10 µM (inactive) | GI50 (RXF 393): > 10 µM (inactive) | GI50 (SF-268): > 10 µM (inactive) | GI50 (SF-295): > 10 µM (inactive) | GI50 (SF-539): > 10 µM (inactive) | GI50 (SK-MEL-28): > 10 µM (inactive) | GI50 (SK-MEL-2): > 10 µM (inactive) | GI50 (SK-MEL-5): > 10 µM (inactive) | GI50 (SK-OV-3): > 10 µM (inactive) | GI50 (SN12C): > 10 µM (inactive) | GI50 (SNB-19): > 10 µM (inactive) | GI50 (SNB-75): > 10 µM (inactive) | GI50 (SW-620): > 10 µM (inactive) | GI50 (T47D): > 10 µM (inactive) | GI50 (TK-10): > 10 µM (inactive) | GI50 (U-251): > 10 µM (inactive) | GI50 (UACC-257): > 10 µM (inactive) | GI50 (UACC-62): > 10 µM (inactive) | GI50 (UO-31): > 10 µM (inactive)

CCc1cc2c(oc3cc(C)ccc32)c(=O)n1C
GI50 (786-0): > 10 µM (inactive) | GI50 (A549): > 10 µM (inactive) | GI50 (ACHN): > 10 µM (inactive) | GI50 (BT-549): > 10 µM (inactive) | GI50 (CCRF-CEM): > 10 µM (inactive) | GI50 (DU-145): > 10 µM (inactive) | GI50 (EKVX): > 10 µM (inactive) | GI50 (HCC 2998): > 10 µM (inactive) | GI50 (HCT-116): > 10 µM (inactive) | GI50 (HCT-15): > 10 µM | GI50 (HL-60): > 10 µM (inactive) | GI50 (HOP-92): > 10 µM (inactive) | GI50 (HT-29): > 10 µM (inactive) | GI50 (Hs-578T): > 10 µM (inactive) | GI50 (IGROV-1): > 10 µM (inactive) | GI50 (K562): > 10 µM (inactive) | GI50 (KM12): > 10 µM (inactive) | GI50 (LOX IMVI): > 10 µM (inactive) | GI50 (M14): > 10 µM (inactive) | GI50 (MCF7): > 10 µM (inactive) | GI50 (MDA-MB-231): > 10 µM (inactive) | GI50 (MDA-MB-435): > 10 µM (inactive) | GI50 (MDA-N): > 10 µM (inactive) | GI50 (MOLT-4): > 10 µM (inactive) | GI50 (Malme-3M): > 10 µM (inactive) | GI50 (NCI-H226): > 10 µM (inactive) | GI50 (NCI-H23): > 10 µM (inactive) | GI50 (NCI-H460): > 10 µM (inactive) | GI50 (NCI-H522): > 10 µM (inactive) | GI50 (OVCAR-3): > 10 µM (inactive) | GI50 (OVCAR-4): > 10 µM (inactive) | GI50 (OVCAR-5): > 10 µM (inactive) | GI50 (OVCAR-8): > 10 µM (inactive) | GI50 (PC-3): > 10 µM (inactive) | GI50 (RXF 393): > 10 µM (inactive) | GI50 (SF-268): > 10 µM (inactive) | GI50 (SF-295): > 10 µM (inactive) | GI50 (SF-539): > 10 µM (inactive) | GI50 (SK-MEL-2): > 10 µM (inactive) | GI50 (SK-OV-3): > 10 µM (inactive) | GI50 (SN12C): > 10 µM (inactive) | GI50 (SNB-19): > 10 µM (inactive) | GI50 (SNB-75): > 10 µM (inactive) | GI50 (SR): > 10 µM (inactive) | GI50 (SW-620): > 10 µM (inactive) | GI50 (T47D): > 10 µM (inactive) | GI50 (TK-10): > 10 µM (inactive) | GI50 (U-251): > 10 µM (inactive) | GI50 (UACC-257): > 10 µM (inactive) | GI50 (UO-31): > 10 µM (inactive)

Reference: ChEMBL document CHEMBL1201862, “PubChem BioAssay data set” (2004)
